The results in this text go back to ChEMBL document CHEMBL1201862, “PubChem BioAssay data set” (2004).

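Interpolation was linear, between the two tested concentrations surrounding the appropriate level; five concentrations were tested over 48 hours in 96-well plates. Abbreviation: GI50, concentration required for 50% inhibition of growth.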 Active and inactive are the calls of the source. Cut-off read from the data, not from the text of the source: active = GI50 up to about 1.1 µM and inactive = higher. Where only a bound is given, the exact number is not on record here.

What is called GI50 is the concentration at which growth is held to half of that of the control.

Some test systems named below: A498; OVCAR-4; UACC-62; Hs-578T; SK-MEL-28; SK-MEL-2; SF-295; OVCAR-8; HL-60; T47D; SK-OV-3; COLO 205; RXF 393; HCT-15; ACHN; MCF7; DU-145; IGROV-1; CAKI-1; SF-268.
Assay in all cases: DTP human tumour cell line panel, 48 h

For `O=Cc1ccc(-c2nccc3c2[nH]c2ccccc23)o1`, the GI50 in the assay on A498 is 0.585 µM (active); in the assay with OVCAR-4 it was 89.5 µM (inactive); in the assay with UACC-62 it was 26.9 µM (inactive); in the assay on Hs-578T, 19.4 µM (inactive); in the assay on SK-MEL-28, > 100 µM (inactive); with SK-MEL-2, > 95.5 µM (inactive). Further, the GI50 is 20.4 µM (inactive) in the assay with SF-295; > 87.1 µM (inactive) in the assay with OVCAR-8; 74.8 µM (inactive) with HL-60; 47.9 µM (inactive) in the assay on T47D; 97.7 µM (inactive) in the assay on SK-OV-3; > 100 µM (inactive) with COLO 205. For the same compound, the GI50 was 22.2 µM (inactive) in the assay on RXF 393; more than 100 µM with HCT-15; > 100 µM (inactive) with ACHN; 55 µM (inactive) in the assay with MCF7; > 100 µM (inactive) in the assay with DU-145; > 73.3 µM (inactive) with IGROV-1. In addition, the GI50 in the assay on CAKI-1 was 4.91 µM (inactive); with SF-268, > 100 µM (inactive).

For the compound `C=CC(=O)c1ccc2c(c1)OCCOCCOCCOCCOCCO2`, the GI50 in the assay on A498 is > 100 µM (inactive); with OVCAR-4, 20.3 µM (inactive); with UACC-62, 30.3 µM (inactive); in the assay on Hs-578T, > 100 µM (inactive); in the assay on SK-MEL-28, 18.7 µM (inactive); with SK-MEL-2, 30.5 µM (inactive). The GI50 with SF-295 was > 100 µM (inactive); in the assay on OVCAR-8 it was 20 µM (inactive); in the assay on HL-60 it was > 58.6 µM (inactive); in the assay with T47D, 29.3 µM (inactive); in the assay on SK-OV-3, > 100 µM (inactive); in the assay with COLO 205, 17.7 µM (inactive). Further, the GI50 was 17.2 µM (inactive) in the assay on RXF 393; 21.6 µM in the assay on HCT-15; 17.7 µM (inactive) in the assay on ACHN; 16 µM (inactive) in the assay with MCF7; > 100 µM (inactive) with DU-145; > 100 µM (inactive) in the assay with IGROV-1. Moreover, the GI50 with CAKI-1 is 34.4 µM (inactive); in the assay with SF-268 it was > 55.6 µM (inactive).

As for `COc1ccc(Nc2nc(N)c(C(=O)c3ccccc3)s2)cc1`, the GI50 with A498 is 5.66 µM (inactive); with OVCAR-4, 2.44 µM (inactive); in the assay on UACC-62 it was 0.05 µM (active); with Hs-578T it was 0.0826 µM (active); with SK-MEL-28, 44.4 µM (inactive); in the assay on SK-MEL-2, 0.054 µM (active). Further, the GI50 in the assay on SF-295 is 0.0164 µM (active); in the assay on OVCAR-8, 0.139 µM (active); with HL-60, < 0.01 µM (active); in the assay with T47D, 40.2 µM (inactive); in the assay on SK-OV-3 it was 0.0865 µM (active); in the assay with COLO 205 it was 0.0398 µM (active). In addition, the GI50 was 0.19 µM (active) with RXF 393; 0.0471 µM in the assay on HCT-15; 7.67 µM (inactive) in the assay on ACHN; 0.54 µM (active) with MCF7; 0.178 µM (active) in the assay on DU-145; 0.273 µM (active) with IGROV-1. Besides, the figures for the GI50 in the assay on CAKI-1 and in the assay with SF-268 were 0.0342 µM (active) and 0.839 µM (active), respectively.

For the compound `Clc1cc(OCc2nn3c(Cc4ccccc4)nnc3s2)c(Cl)cc1OCc1nn2c(Cc3ccccc3)nnc2s1`, the GI50 is 30.5 µM (inactive) with A498; 50 µM (inactive) in the assay with OVCAR-4; > 100 µM (inactive) with UACC-62; 42.4 µM (inactive) in the assay with Hs-578T; > 100 µM (inactive) in the assay on SK-MEL-28; > 100 µM (inactive) in the assay on SK-MEL-2. For the same compound, the GI50 with SF-295 was 31.3 µM (inactive); in the assay with OVCAR-8, 28.6 µM (inactive); in the assay with HL-60, 68.1 µM (inactive); in the assay on T47D it was 22.1 µM (inactive); in the assay with SK-OV-3, 25.8 µM (inactive); with COLO 205, > 100 µM (inactive). Besides, the GI50 in the assay on RXF 393 is 17 µM (inactive); in the assay on HCT-15, 7.05 µM; in the assay on ACHN, 59 µM (inactive); in the assay on MCF7, > 100 µM (inactive); in the assay with DU-145, 47.1 µM (inactive); in the assay with IGROV-1, 36 µM (inactive). Further, the results for the GI50 with CAKI-1 and in the assay on SF-268 were > 100 µM (inactive) and 43.8 µM (inactive), respectively.

Regarding `Brc1ccc2c(-c3nc(-c4c[nH]c5ccc(Br)cc45)cs3)c[nH]c2c1`, the GI50 in the assay with A498 is 2.41 µM (inactive); with OVCAR-4, 9.33 µM (inactive); in the assay on UACC-62, 2.87 µM (inactive); with Hs-578T, 7.21 µM (inactive); with SK-MEL-28, 11.3 µM (inactive); with SK-MEL-2 it was 6.25 µM (inactive). Further, the GI50 is 3.92 µM (inactive) with SF-295; 7.14 µM (inactive) in the assay with OVCAR-8; 6.43 µM (inactive) with HL-60; 4.86 µM (inactive) with T47D; 15.4 µM (inactive) in the assay on SK-OV-3; 2.54 µM (inactive) with COLO 205. The GI50 is 4.45 µM (inactive) in the assay with RXF 393; 3.39 µM with HCT-15; 1.67 µM (inactive) in the assay on ACHN; 0.887 µM (active) in the assay on MCF7; 5.77 µM (inactive) in the assay on DU-145; 2.99 µM (inactive) with IGROV-1. The GI50 was 4.03 µM (inactive) in the assay on CAKI-1 and 4.82 µM (inactive) in the assay with SF-268.

As for `C=CC(C)(C)n1cc(C2=C(O)C(=O)C(c3cn(C(C)(C)C=C)c4ccccc34)=C(OC(C)=O)C2=O)c2ccccc21`, the GI50 in the assay with A498 is 0.853 µM (active); in the assay on OVCAR-4, 1.32 µM (inactive); with UACC-62, 0.571 µM (active); in the assay on Hs-578T, 0.646 µM (active); in the assay with SK-MEL-28, 1.21 µM (inactive); with SK-MEL-2, 1.02 µM (active). The GI50 in the assay with SF-295 was 0.571 µM (active); in the assay on OVCAR-8, 0.632 µM (active); in the assay with HL-60, 0.571 µM (active); in the assay on T47D, 1.68 µM (inactive); in the assay on SK-OV-3, 1.49 µM (inactive); in the assay with COLO 205, 1.67 µM (inactive). For the same compound, the GI50 is 0.929 µM (active) with RXF 393; 0.375 µM in the assay on HCT-15; 1.27 µM (inactive) in the assay with ACHN; 0.0715 µM (active) in the assay on MCF7; 1.04 µM (active) in the assay on DU-145; 0.435 µM (active) with IGROV-1. Also, the GI50 was 1.08 µM (active) with CAKI-1 and 0.655 µM (active) with SF-268.

As for `COC(=O)c1ccc(NCc2cc(O)c3ccccc3c2O)cc1`, the GI50 is 19.8 µM (inactive) in the assay with A498; 12.4 µM (inactive) in the assay on OVCAR-4; 3.67 µM (inactive) with UACC-62; 37.7 µM (inactive) with Hs-578T; 5.65 µM (inactive) with SK-MEL-28; 18.2 µM (inactive) in the assay with SK-MEL-2. The GI50 is 7.5 µM (inactive) in the assay with SF-295; 24.4 µM (inactive) in the assay on OVCAR-8; 3.3 µM (inactive) in the assay on HL-60; 5.12 µM (inactive) in the assay on T47D; 16.8 µM (inactive) in the assay with SK-OV-3; 5.06 µM (inactive) with COLO 205. The GI50 is 16.3 µM (inactive) in the assay on RXF 393; 8.49 µM in the assay with HCT-15; 10.8 µM (inactive) with ACHN; 3.68 µM (inactive) in the assay with MCF7; 15.8 µM (inactive) with DU-145; 11.4 µM (inactive) in the assay on IGROV-1. Moreover, the GI50 was 6.17 µM (inactive) in the assay on CAKI-1 and 22.4 µM (inactive) in the assay with SF-268.

As for `CCN(CC)Cc1c(/C=C\c2cc(OC)c(OC)c(OC)c2)ccc(OC)c1O`, the GI50 with A498 is 6.22 µM (inactive); in the assay on OVCAR-4, 12.3 µM (inactive); with UACC-62, 2.43 µM (inactive); in the assay with Hs-578T, 2.08 µM (inactive); in the assay on SK-MEL-28, 15 µM (inactive); in the assay with SK-MEL-2, 6.62 µM (inactive). In addition, the GI50 in the assay on SF-295 is 2.03 µM (inactive); in the assay on OVCAR-8, 4.1 µM (inactive); in the assay with HL-60 it was 3.85 µM (inactive); in the assay with T47D it was > 100 µM (inactive); in the assay with SK-OV-3, 2.12 µM (inactive); with COLO 205, 2.45 µM (inactive). In addition, the GI50 in the assay on RXF 393 is 2.04 µM (inactive); in the assay on HCT-15, 2.71 µM; with ACHN it was 8.59 µM (inactive); in the assay with MCF7, 3.17 µM (inactive); with DU-145, 3.72 µM (inactive); in the assay with IGROV-1, 4.2 µM (inactive). Besides, the GI50 is 4.42 µM (inactive) in the assay with CAKI-1 and 5.21 µM (inactive) in the assay with SF-268.

`O=S1(=O)OCCOS(=O)(=O)C1Cc1cccc2ccccc12`: the GI50 was 14.1 µM (inactive) in the assay on A498; 19.8 µM (inactive) in the assay on OVCAR-4; 22.2 µM (inactive) with UACC-62; 29.9 µM (inactive) in the assay with Hs-578T; 2.69 µM (inactive) in the assay on SK-MEL-28; 51.3 µM (inactive) in the assay on SK-MEL-2. Also, the GI50 in the assay with SF-295 was 32.3 µM (inactive); with OVCAR-8 it was 17.7 µM (inactive); in the assay with HL-60 it was 11.6 µM (inactive); with T47D, 39.4 µM (inactive); in the assay on SK-OV-3, 27.5 µM (inactive); in the assay on COLO 205, 13.9 µM (inactive). In addition, the GI50 with RXF 393 was 3.37 µM (inactive); in the assay with HCT-15, 26.5 µM; in the assay on ACHN, 31.5 µM (inactive); in the assay with MCF7, 14.4 µM (inactive); with DU-145 it was 12 µM (inactive); with IGROV-1 it was 13.9 µM (inactive). The GI50 was 32.6 µM (inactive) in the assay on CAKI-1 and 14.5 µM (inactive) in the assay with SF-268.

Consider `N=C(N)N/N=C/c1c(-c2ccc(N)cc2)nc2sccn12`, for which the GI50 in the assay with A498 was 25.9 µM (inactive); in the assay with OVCAR-4, 35.3 µM (inactive); with UACC-62, > 100 µM (inactive); in the assay with Hs-578T it was 31.3 µM (inactive); with SK-MEL-28, > 100 µM (inactive); with SK-MEL-2, 30.5 µM (inactive). Further, the GI50 in the assay on SF-295 was 23.4 µM (inactive); in the assay on OVCAR-8, 34.5 µM (inactive); with HL-60, 16.2 µM (inactive); in the assay with T47D, 21.1 µM (inactive); in the assay with SK-OV-3, 24.8 µM (inactive); with COLO 205, 23.4 µM (inactive). Further, the GI50 in the assay on RXF 393 was 18.2 µM (inactive); in the assay on HCT-15 it was 36.9 µM; with ACHN, 26.9 µM (inactive); in the assay on MCF7, 31.6 µM (inactive); in the assay with DU-145 it was 17.5 µM (inactive); in the assay with IGROV-1, 60.8 µM (inactive). For the same compound, the results for the GI50 in the assay with CAKI-1 and in the assay with SF-268 were 33.7 µM (inactive) and 34.7 µM (inactive), respectively.
